Assay results reported in patent US20200196637A1, “COMPOSITION FOR PREVENTION OR TREATMENT OF MILD COGNITIVE […] […] […] AS ACTIVE INGREDIENT” (priority 2016, published 2020).

Test system: APOE-gene deficient mice (BALB/c.KOR/StmSlc-Apoe^shl)
Experiment: Y maze test of spacial working memory
Type: in vivo
Details: intake from age of 8 weeks, examined 250 days later (10-month old)
Protocol: The wild type mice used were BALB/cCrSlc and the APOE-gene deficient mice used were BALB/c.KOR/StmSlc-Apoe^shl.
The cognitive function was measured by the Y maze test (Conrad C D. et al., Brain Res. 1997; 759:76-83). Its principle is as follows. Animals placed in the center of 3 arms in the Y-shape start exploratory behavior after a while. Normal animals rarely return to the arm once explored and explore different arms in turn with the help of marks seen out of the maze. However, model animals with declined space recognition and/or memory go to the same place many times and enter the arm that the animal entered the last time again. In the Y maze test, the order of the arms that an animal entered during a certain period of time is measured and the percentage of the number of times (percent alternation) when the mouse entered all different arms in a consecutive raw of three times as an indicator of space recognition and memory.
Powder feed containing 0.1 g of MgH2 in 1 kg of MF powder feed (a product manufactured by Oriental Yeast Co., ltd.) was produced and the animals were allowed to take the feed freely. […] The control feed was feed containing 0.22 g of Mg(OH)2 per 1 kg of MF powder feed. The feed was changed with fresh feed five times a week.
The control mice were placed for 1 hour in a chamber containing the air five times a week.

Compound	spacial working memory (percent alternation, Y maze, FIG. 4)
[HH] [hydrogen gas]	the decline of spacial working memory was decreased
[H-].[H-].[Mg+2] [MgH2, magnesium hydride]	the decline of spacial working memory was decreased
